Reference: ChEMBL document CHEMBL1201862, “PubChem BioAssay data set” (2004)
Active and inactive are the calls of the source.

What was measured:
[1] = A Cell Based Secondary Assay To Explore Cytotoxicity of Compounds that Sensitize Mycobacterium Tuberculosis to Beta-Lactam Antibiotics.; format: functional
NS3 = NS3 (Hepatitis C virus, UniProt A3EZJ3); assay: PubChem AID 2173; set-up: species or system Hepacivirus hominis
[2] = system: Streptococcus sp. 'group A'; assay: growth inhibition of control SK(-) GAS strain, dose response, counter-screen for streptokinase expression inhibitor project, luminescence, kanamycin, BacTiterGlo, confirmation (AID 1900); format: functional, organism-based
[3] = Luminescence Cell-Based Dose Retest to Confirm Inhibitors of Cancer Stem Cells. [Related pubchem assays (depositor defined):AID2717, AID2721]; format: functional; conditions: Homo sapiens
Streptokinase A = target: T1, Streptokinase A (Streptococcus pyogenes serotype M1, UniProt P10520); assay: S. pyogenes streptokinase expression inhibitors, potency, dose response, plasminogen activation absorbance, OD405 (AID 1914); format: functional, Streptococcus pyogenes M1 GAS;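 also: secreted streptokinase activity via plasminogen activation per viability signal from cell pellet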
T1 sequence (P10520 whole entry): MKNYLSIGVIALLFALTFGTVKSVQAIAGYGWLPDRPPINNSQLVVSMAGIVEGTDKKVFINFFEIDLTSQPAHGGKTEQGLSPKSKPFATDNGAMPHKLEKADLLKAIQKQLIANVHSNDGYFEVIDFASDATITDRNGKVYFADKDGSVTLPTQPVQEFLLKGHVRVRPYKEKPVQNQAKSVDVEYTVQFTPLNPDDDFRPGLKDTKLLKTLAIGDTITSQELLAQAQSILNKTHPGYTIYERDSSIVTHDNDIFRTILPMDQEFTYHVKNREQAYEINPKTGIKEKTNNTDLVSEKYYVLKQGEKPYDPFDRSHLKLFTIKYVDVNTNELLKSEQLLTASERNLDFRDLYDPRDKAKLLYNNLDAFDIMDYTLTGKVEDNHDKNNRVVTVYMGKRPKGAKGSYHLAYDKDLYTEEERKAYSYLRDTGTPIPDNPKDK

Streptococcus = assay: Group A Streptococcus viability loss, dose response, counter-screen for streptokinase expression inhibitor project, luminescence, BacTiterGlo (AID 1915); format: functional, organism-based;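 also: potency for reduction of bacterial viability or growth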
[4] = target: Luciferin 4-monooxygenase (Photinus pyralis, UniProt P08659); assay: Counter Screen for Luciferase-based Assay Positives. [Related pubchem assays: 620, 618, 411 ]
Sequence of Luciferin 4-monooxygenase (P08659 whole entry): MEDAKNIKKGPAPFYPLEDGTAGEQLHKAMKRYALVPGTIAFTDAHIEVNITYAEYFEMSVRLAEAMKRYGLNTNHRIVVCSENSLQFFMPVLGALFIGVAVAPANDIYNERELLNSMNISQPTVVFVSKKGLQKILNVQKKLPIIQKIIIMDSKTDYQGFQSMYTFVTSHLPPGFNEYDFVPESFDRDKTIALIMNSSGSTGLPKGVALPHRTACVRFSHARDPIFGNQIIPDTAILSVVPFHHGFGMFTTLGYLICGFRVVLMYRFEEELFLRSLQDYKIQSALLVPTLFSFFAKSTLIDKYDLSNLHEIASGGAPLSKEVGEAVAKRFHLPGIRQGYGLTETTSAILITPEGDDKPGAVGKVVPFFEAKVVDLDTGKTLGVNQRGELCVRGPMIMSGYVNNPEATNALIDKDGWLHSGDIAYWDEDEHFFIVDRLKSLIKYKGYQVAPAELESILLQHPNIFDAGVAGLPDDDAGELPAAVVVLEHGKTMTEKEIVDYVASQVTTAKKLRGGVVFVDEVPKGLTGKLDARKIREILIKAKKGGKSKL

[5] = inhibitors of firefly luciferase expression or activity, dose response, H4 neuroglioma cells, luminescence (AID 1990); format: functional, cell-based
[6] = cytotoxicity in MIN6 insulinoma cells, dose response, cytotoxicity control, cell-based, mouse insulinoma (AID 2122); format: functional;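 also: confirmatory high-throughput counterscreen run to flag cytotoxic compounds; mouse MIN-6 beta cells carrying an insulin promoter eGFP reporter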
HT-1080 = assay: cytotoxicity in HT1080 fibrosarcoma cells, cell-based, fluorescence readout (AID 620); format: functional; conditions: Homo sapiens
[7] = Luminescence Cell-Based Dose Response HTS to Identify Inhibitors of 5'UTR Stem-Loop Driven Prion Protein mRNA Translation in H4 Neuroglioblastoma Cells. [Related pubchem assays: 1827 (Project Summary), 1813 (Primary HTS)]; format: functional
[8] = inhibitors of SNCA 5'UTR-driven reporter translation, confirmation, H4 neuroglioma cells, luminescence (AID 1988); format: functional, cell-based
[9] = insulin promoter down-regulators in MIN6 cells, imaging, high-content screening, mouse beta cells (AID 1628); format: functional
Galanin receptor type 2 = Galanin receptor type 2 (Homo sapiens, UniProt O43603); assay: Dose Response cell-based high-throughput screening assay to identify antagonists of galanin receptor 2 (GALR2). [Related pubchem assays: 828, 866 ]; format: functional
Sequence of Galanin receptor type 2 (O43603 whole entry, the tested form may be a part): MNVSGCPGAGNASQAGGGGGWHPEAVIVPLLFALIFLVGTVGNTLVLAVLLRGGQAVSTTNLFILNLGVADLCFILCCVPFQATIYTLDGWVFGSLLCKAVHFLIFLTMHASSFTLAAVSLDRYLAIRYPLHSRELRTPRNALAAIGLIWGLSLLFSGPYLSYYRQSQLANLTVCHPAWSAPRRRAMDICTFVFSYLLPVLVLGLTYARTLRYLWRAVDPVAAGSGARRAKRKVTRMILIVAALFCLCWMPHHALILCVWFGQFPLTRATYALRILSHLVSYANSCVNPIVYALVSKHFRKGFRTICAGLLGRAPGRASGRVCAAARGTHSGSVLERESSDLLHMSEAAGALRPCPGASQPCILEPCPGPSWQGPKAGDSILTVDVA

[10] = target: Photoreceptor-specific nuclear receptor (Homo sapiens, UniProt Q9Y5X4); format: functional, cell-based;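 also: CHO-S cells with Gal4-NCOR and VP16-NR2E3 two-hybrid luciferase reporter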
Sequence of Photoreceptor-specific nuclear receptor (Q9Y5X4 whole entry, the tested form may be a part): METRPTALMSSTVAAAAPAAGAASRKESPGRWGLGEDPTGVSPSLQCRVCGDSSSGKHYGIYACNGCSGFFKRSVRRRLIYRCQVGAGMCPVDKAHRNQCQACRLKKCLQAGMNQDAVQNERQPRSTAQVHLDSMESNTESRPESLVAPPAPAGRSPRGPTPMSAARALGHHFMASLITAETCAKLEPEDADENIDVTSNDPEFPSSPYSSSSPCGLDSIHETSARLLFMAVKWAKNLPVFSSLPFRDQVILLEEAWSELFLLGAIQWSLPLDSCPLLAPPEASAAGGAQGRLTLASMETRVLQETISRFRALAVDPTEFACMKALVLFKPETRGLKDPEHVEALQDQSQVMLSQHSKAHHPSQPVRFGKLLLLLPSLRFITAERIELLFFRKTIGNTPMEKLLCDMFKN

[11] = target: T2, Neuropeptide Y receptor type 2 (Homo sapiens, UniProt P49146); assay: NPY-Y2 antagonist potency, selectivity check, dose response, counter-screen for NPY-Y1 antagonist project, cell-based (AID 1278); format: functional
T2 sequence (P49146 whole entry): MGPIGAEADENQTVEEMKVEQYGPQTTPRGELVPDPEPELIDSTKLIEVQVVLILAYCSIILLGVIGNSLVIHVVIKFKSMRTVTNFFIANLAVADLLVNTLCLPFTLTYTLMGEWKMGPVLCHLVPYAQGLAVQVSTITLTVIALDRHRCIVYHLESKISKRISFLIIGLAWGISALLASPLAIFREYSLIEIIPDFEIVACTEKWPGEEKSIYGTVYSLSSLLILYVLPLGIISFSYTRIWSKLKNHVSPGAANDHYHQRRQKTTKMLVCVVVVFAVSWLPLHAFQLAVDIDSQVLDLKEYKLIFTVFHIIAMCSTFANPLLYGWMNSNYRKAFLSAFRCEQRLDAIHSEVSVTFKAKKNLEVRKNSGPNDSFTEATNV

[12] = target: T3, Neuropeptide Y receptor type 1 (Homo sapiens, UniProt P25929); assay: NPY-Y1 receptor antagonist potency, dose response, cell-based (AID 1277); format: functional
T3 sequence (P25929 whole entry): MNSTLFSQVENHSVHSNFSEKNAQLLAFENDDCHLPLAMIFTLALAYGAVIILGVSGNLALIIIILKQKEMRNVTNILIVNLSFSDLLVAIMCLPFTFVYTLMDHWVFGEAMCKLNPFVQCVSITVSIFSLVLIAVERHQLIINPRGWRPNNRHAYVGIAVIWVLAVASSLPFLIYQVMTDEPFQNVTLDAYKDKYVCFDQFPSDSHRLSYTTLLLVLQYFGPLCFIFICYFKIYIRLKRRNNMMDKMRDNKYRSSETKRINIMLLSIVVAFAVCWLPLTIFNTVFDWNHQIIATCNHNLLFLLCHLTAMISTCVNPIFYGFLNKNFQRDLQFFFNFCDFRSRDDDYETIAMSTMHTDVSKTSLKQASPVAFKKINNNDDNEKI

[13] = target: T4, Mannose-6-phosphate isomerase (Homo sapiens, UniProt P34949); assay: inhibitors of human PMI, primary screen, biochemical, fluorescence intensity, coupled assay (AID 1209)
T4 sequence (P34949 whole entry): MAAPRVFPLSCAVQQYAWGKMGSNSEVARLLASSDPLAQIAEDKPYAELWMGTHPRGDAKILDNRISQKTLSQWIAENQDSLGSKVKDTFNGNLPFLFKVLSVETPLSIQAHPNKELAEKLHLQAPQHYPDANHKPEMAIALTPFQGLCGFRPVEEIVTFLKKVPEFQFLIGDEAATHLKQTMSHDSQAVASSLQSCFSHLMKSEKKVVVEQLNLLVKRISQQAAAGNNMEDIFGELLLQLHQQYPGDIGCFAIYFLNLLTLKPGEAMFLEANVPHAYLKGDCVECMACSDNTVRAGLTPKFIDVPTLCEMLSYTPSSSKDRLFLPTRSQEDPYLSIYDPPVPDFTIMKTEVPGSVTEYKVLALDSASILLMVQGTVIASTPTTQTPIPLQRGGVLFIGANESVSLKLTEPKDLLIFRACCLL

[14] = target: Peroxisome proliferator-activated receptor gamma/Nuclear receptor coactivator 1 (Homo sapiens, UniProt P37231); format: functional;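 also: agonist potency as compounds enhance coactivator SRC-1 recruitment to PPARgamma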
[15] = target: T5, Endoribonuclease toxin MazF (Escherichia coli K-12, UniProt P0AE70); assay: fluorescent RNA oligo signal without MazF, dose response, counter-screen for MazEF activator project, biochemical, fluorescence, single-stranded RNase substrate (AID 588502); format: functional
T5 sequence (P0AE70 whole entry): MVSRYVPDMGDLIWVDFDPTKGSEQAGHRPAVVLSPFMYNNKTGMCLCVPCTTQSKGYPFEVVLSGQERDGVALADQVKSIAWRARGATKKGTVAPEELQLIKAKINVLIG

[16] = target: T5, Endoribonuclease toxin MazF; assay: MazF toxin RNase activators, dose response, biochemical, fluorescence, single-stranded RNA substrate, uHTS hits (AID 588481); format: functional
[17] = target: Peroxisome proliferator-activated receptor gamma/Nuclear receptor coactivator 3 (Homo sapiens, UniProt P37231); format: functional;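 also: agonist potency for raising coactivator recruitment to the receptor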
[18] = target: Peroxisome proliferator-activated receptor gamma/Nuclear receptor coactivator 2 (Homo sapiens, UniProt P37231); format: functional;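 also: agonist potency for raising coactivator recruitment to the receptor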
NADPH oxidase 1 = NADPH oxidase 1 (Homo sapiens, UniProt Q9Y5S8); format: functional, cell-based;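 also: Cell-based assay with luminescence read-out, IC50 derived from inhibitor dose-response curves; intracellular ROS from endogenous NOX1 in intact HT29 colon cancer cells; potency of inhibitors that lower the ROS luminescence signal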
Sequence of NADPH oxidase 1 (Q9Y5S8 whole entry): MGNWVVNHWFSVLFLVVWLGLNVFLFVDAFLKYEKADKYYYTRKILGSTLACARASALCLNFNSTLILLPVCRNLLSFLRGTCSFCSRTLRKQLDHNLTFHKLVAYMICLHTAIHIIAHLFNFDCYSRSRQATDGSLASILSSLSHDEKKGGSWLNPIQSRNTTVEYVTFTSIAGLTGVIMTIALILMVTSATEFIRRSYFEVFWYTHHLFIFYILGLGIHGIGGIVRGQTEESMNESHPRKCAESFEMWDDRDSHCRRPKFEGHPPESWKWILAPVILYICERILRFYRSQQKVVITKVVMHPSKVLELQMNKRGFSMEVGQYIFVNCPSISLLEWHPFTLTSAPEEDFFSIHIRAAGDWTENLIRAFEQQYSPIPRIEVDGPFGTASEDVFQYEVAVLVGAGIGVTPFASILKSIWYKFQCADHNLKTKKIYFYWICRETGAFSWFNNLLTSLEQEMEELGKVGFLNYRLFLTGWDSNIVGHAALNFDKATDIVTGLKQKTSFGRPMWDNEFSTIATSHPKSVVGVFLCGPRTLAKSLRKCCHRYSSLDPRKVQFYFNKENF

Estrogen receptor beta [19] = target: T6, Estrogen receptor beta (Homo sapiens, UniProt Q92731);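 also: recombinant ER-beta bound to coactivator SRC1 peptide in presence of estradiol agonist; inhibitors block coactivator peptide binding and lower the FRET signal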
T6 sequence (Q92731 whole entry): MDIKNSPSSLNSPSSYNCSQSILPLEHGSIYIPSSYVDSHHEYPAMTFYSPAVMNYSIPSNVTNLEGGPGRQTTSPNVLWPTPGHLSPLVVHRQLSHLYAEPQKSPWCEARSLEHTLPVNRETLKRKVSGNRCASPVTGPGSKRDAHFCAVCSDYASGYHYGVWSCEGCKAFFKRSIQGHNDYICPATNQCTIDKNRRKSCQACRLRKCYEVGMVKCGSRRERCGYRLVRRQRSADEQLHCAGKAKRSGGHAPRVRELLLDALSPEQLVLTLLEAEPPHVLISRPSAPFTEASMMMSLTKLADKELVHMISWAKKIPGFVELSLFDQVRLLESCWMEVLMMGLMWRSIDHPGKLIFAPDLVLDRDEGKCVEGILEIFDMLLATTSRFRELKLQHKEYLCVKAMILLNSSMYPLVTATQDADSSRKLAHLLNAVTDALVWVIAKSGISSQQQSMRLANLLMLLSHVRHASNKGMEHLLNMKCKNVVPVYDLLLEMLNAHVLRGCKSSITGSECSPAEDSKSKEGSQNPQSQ

Estrogen receptor beta [20] = target: T6, Estrogen receptor beta; assay: ERβ–SRC-3 coactivator interaction inhibitors, confirmation, orthogonal assay, biochemical, ELISA, streptavidin-HRP readout (AID 1060)
Estrogen receptor = target: T7, Estrogen receptor (Homo sapiens, UniProt P03372);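 also: potency for inhibiting coactivator peptide recruitment to the receptor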
T7 sequence (P03372 whole entry): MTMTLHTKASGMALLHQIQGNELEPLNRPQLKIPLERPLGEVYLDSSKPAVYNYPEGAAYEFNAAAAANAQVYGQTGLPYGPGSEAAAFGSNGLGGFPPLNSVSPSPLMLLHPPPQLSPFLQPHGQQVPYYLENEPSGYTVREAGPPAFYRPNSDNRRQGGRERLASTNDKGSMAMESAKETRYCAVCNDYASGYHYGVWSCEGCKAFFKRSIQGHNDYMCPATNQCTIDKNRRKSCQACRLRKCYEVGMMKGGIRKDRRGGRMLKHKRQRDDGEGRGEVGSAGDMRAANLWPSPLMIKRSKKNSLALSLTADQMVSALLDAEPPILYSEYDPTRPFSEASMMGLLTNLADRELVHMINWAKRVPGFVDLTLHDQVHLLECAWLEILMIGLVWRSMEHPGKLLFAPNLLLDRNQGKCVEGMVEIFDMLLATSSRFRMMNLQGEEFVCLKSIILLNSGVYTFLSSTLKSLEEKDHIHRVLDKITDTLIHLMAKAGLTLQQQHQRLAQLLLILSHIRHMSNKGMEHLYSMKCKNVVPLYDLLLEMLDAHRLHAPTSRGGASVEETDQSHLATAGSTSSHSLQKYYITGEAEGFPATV

Protein skinhead-1 = target: T8, Protein skinhead-1 (Caenorhabditis elegans, UniProt P34707); format: functional
T8 sequence (P34707 whole entry): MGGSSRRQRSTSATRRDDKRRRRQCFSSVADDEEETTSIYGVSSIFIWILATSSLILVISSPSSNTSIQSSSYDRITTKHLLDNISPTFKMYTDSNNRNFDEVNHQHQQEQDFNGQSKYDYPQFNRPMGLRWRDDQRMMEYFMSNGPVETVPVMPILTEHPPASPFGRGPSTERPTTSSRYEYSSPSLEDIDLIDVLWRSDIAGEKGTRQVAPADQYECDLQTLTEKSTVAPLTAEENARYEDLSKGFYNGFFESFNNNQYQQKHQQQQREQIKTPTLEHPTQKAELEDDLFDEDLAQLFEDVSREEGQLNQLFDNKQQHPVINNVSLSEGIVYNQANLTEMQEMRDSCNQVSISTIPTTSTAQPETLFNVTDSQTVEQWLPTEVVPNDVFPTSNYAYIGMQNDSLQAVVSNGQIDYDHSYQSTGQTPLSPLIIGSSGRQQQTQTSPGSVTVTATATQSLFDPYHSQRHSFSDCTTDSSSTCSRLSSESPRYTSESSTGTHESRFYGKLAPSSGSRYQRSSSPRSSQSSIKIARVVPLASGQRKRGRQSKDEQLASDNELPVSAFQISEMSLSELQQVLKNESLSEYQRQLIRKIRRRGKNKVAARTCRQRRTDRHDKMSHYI

Bcl-2-like protein 10 = Bcl-2-like protein 10 (Homo sapiens, UniProt Q9HD36); assay: Biochemical TR3 FP assay of Bcl-B inhibitor potency, EC50 (AID 1243); format: functional
Sequence of Bcl-2-like protein 10 (Q9HD36 whole entry): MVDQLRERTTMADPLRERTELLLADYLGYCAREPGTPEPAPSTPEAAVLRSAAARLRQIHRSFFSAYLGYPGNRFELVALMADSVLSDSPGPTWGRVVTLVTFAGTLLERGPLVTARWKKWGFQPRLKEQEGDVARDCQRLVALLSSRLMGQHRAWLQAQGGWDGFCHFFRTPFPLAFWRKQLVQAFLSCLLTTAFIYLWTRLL
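For AC50 in this document: cells exposed to compound for roughly 70 hours or longer before luminescence read.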

Sequence of NS3 (A3EZJ3 whole entry): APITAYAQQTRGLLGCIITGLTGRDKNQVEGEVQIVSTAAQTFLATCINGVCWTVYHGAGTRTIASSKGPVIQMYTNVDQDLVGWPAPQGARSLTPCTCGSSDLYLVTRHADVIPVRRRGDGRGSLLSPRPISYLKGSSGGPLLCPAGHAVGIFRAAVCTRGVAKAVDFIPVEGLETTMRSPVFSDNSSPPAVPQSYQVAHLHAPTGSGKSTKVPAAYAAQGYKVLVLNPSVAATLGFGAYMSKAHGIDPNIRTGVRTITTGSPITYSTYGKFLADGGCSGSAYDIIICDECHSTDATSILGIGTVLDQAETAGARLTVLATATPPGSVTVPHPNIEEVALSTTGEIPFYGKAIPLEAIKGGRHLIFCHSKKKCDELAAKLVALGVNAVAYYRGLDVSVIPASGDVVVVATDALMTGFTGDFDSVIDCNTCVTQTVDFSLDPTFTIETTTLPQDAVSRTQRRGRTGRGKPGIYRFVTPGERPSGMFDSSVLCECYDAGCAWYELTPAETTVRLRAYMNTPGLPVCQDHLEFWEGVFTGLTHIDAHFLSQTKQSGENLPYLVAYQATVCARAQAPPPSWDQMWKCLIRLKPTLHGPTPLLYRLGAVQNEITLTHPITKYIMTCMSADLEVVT

Q: For `O=C(Nc1ccc([N+](=O)[O-])cc1)c1cc2ccccc2nc1Cl`, which CC50 [1] is on record?
A: > 40 µM (active)

Q: With `CCCCCCCCCc1nc2sc3c(c2c(=O)n1NC(=O)c1ccccc1[N+](=O)[O-])CC(C)(C)OC3` as the compound, how does the IC50 (NS3) read?
A: 11.2 µM (not active)

Q: And the EC50 [2]?
A: 1.73 µM (active)

Q: And the AC50 [3]?
A: 0.843 µM (active)

Q: And the EC50 (Streptokinase A)?
A: 2.23 µM (active)

Q: And the EC50 (Streptococcus)?
A: 63.4 µM (active)

Q: With `Cc1cc(C(=O)CSc2nc3ccccc3[nH]2)c(C)n1CC1CCCO1` (stereo not given) as the compound, how does the EC50 [4] read?
A: > 100 µM (not active)

Q: And the EC50 [5]?
A: 7.29 µM (inconclusive)

Q: And the IC50 [6]?
A: 0.874 µM (active)

Q: And the EC50 (HT-1080)?
A: > 50 µM (not active)

Q: And the EC50 [7]?
A: 8.51 µM (active)

Q: What about the EC50 [8] of the same compound?
A: 4.95 µM (active)

Q: What about the IC50 [9] of the same compound?
A: 1.2 µM (active)

Q: What about the IC50 (Galanin receptor type 2) of the same compound?
A: > 42 µM (not active)

Q: What about the IC50 [10] of the same compound?
A: 11.7 µM (inactive)

Q: And the IC50 [11]?
A: > 35 µM (not active)

Q: What about the IC50 [12] of the same compound?
A: > 35 µM (not active)

Q: With `COc1ccc(NC(=O)C2CC(=O)n3cnnc3S2)cc1` (stereo not given) as the compound, how does the IC50 [13] read?
A: > 50 µM (not active)

Q: Which results are given for `Cn1c(/C(C#N)=C(\O)COc2ccc3ccccc3c2)nc2ccccc21`?
A: EC50 [14]: > 79.4 µM (not active); AC50 [3]: < 0.16 µM (active); EC50 [15]: > 99 µM (inactive); EC50 [16]: > 99 µM (inactive); EC50 [17]: > 79.4 µM (not active); EC50 [18]: > 79.4 µM (not active)

Q: Which IC50 (NADPH oxidase 1) does the source give for `O=C(Nc1ccc(OCc2ccccc2)cc1)Nc1ccc(N2CCCCC2)cc1` here?
A: > 17 µM (not active)

Q: What does the source list for `Cc1ccc(-c2csc(NC(=O)c3ccno3)n2)cc1`?
A: IC50 (Estrogen receptor beta [19]): 3.87 µM (active); IC50 (Estrogen receptor beta [20]): < 0.023 µM (not active); IC50 (Estrogen receptor): 7.19 µM (active); IC50 (Protein skinhead-1): > 100 µM (inactive)

Q: With `Oc1ccc(Nc2nc(-c3ccccn3)cs2)cc1` as the compound, how does the EC50 (Bcl-2-like protein 10) read?
A: 3.69 µM (active)
